These results are taken from ChEMBL document CHEMBL1159265, “Bis(sulfato)-cyclosiphonodictyol A, a new disulfated sesquiterpene-hydroquinone from a deep water collection of the Marine sponge Siphonodictyon coralliphagum” (J Nat Prod, 1995).

Each structure is given as a SMILES string.

The IC50 is the midpoint of a concentration-inhibition curve. Low values mean higher potency, high ones lower potency.

This assay concerns the target Leukotriene B4 receptor 1 (Homo sapiens, UniProt Q15722). The assay can be described thus: Displacement of [3H]LTB4 from LTB4 receptor in human neutrophils. A general note: Displacement assays read how much labelled ligand stays bound in the presence of the test substance.

Sequence of Leukotriene B4 receptor 1 (Q15722 whole entry): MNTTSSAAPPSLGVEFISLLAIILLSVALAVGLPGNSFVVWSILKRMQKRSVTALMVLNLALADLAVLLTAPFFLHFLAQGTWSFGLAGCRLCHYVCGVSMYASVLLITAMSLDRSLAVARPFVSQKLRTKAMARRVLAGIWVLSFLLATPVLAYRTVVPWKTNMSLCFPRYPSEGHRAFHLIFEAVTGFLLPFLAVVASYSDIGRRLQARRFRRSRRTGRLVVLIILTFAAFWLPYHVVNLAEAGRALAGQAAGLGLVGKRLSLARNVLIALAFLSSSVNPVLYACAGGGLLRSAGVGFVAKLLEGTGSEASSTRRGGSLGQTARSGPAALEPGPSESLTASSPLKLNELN

With `CC1(C)CCC[C@]2(C)[C@H]3Cc4c(OS(=O)(=O)O)ccc(OS(=O)(=O)O)c4CO[C@]3(C)CC[C@@H]12`, the IC50 stood at 44.5 µM.
